Assay results reported in patent publication US20230234943A1, “TREX1 INHIBITORS AND USES THEREOF” (Tempest Therapeutics, Inc., priority 2020, published 2023).

Target: T1, Human TREX1 enzyme (amino acids 1-242) (Homo sapiens, UniProt Q9NSU2)
T1 construct: Human TREX1 enzyme (amino acids 1-242)
T1 sequence (Q9NSU2 1-242): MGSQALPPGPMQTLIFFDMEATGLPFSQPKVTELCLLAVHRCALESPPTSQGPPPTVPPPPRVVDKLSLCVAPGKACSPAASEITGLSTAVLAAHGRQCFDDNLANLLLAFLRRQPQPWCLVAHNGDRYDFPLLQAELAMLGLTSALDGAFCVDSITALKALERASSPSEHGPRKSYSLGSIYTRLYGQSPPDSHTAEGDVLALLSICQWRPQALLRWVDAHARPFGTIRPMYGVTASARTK
Assay: Human TREX1 enzymatic assay with dsDNA native oligonucleotide (Picogreen fluorescence)
Format: biochemical
Details: 2 mM dithiothreitol in assay buffer; 50 nM dsDNA oligonucleotide; 30 min preincubation at 25° C.; read-out: TREX1/Human + DTT IC50 AVG
Experimental: Example A. Human TREX1 Enzymatic Assay with dsDNA Native Oligonucleotide
Human TREX1 enzyme (amino acids 1-242) was diluted in assay buffer (20 mM Tris pH 7.7, 5 mM MgCl2, 0.01% human serum albumin, 0.01% Brij™-35, 2 mM dithiothreitol) to a final concentration of 0.8 nM to 0.16 nM and added to a 96-well low-binding polypropylene plate. Test compounds were diluted in DMSO to 50× concentration (final DMSO concentration in reaction mixture of 2%) and added to the wells with a concentration ranging from 300 μM to 13 nM or 30 μM to 1.5 nM. The reaction mixtures were incubated for 30 minutes at 25° C. and a solution of annealed dsDNA oligonucleotide (5′-[…]-3′ and Comp: 5′-[…]-3′) was added to a final concentration of 50 nM. The reaction mixtures were incubated at 25° C. for 5-15 minutes and subsequently quenched by transferring part of the assay reaction to a solution of 100 mM ethylenediaminetetraacetic acid and 1:100 Picogreen™ (final concentration of […]) in a black plate with an opaque bottom. The fluorescence ([…]) was measured using a Molecular Devices SpectraMax plate reader. Wells containing oligonucleotide but no TREX1 enzyme were used as negative controls. Wells containing oligonucleotide, TREX1 enzyme, and DMSO were used as positive controls.

IC50 [µM]	Structure (SMILES)
> 100	COc1cc(-c2nc3cc(N4CCN(C)CC4)ccc3n2C)cc(O)c1O [Example 35, 3-methoxy-5-(1-methyl-5-(4-methylpiperazin-1-yl)-1H-benzo[d]imidazol-2-yl)benzene-1,2-diol]
> 100	COc1cc(-c2nc3ncccc3n2C2COC2)cc(O)c1O [Example 36, 3-methoxy-5-(1-(oxetan-3-yl)-1H-imidazo[4,5-b]pyridin-2-yl)benzene-1,2-diol]
> 100	COc1cc(-c2nc3c(-c4ccccc4)ncnc3[nH]2)cc(O)c1O [Example 37, 3-methoxy-5-(6-phenyl-9H-purin-8-yl)benzene-1,2-diol]
> 100	COc1cc(-c2nc3ccc(N4CCN(C)CC4)cc3n2C)cc(O)c1O [Example 38, 3-methoxy-5-(1-methyl-6-(4-methylpiperazin-1-yl)-1H-benzo[d]imidazol-2-yl)benzene-1,2-diol]
10 to 100	COc1cc(-c2nc3ccc(S(=O)(=O)Nc4ccccc4)cc3n2C2COC2)cc(O)c1O [Example 39, 2-(3,4-dihydroxy-5-methoxyphenyl)-1-(oxetan-3-yl)-N-phenyl-1H-benzo[d]imidazole-6-sulfonamide]
> 100	COc1cc(-c2nc3c(C)ncnc3[nH]2)cc(O)c1O [Example 41, 3-methoxy-5-(6-methyl-9H-purin-8-yl)benzene-1,2-diol]
10 to 100	COc1cc(-c2nc3ccc(S(=O)(=O)Nc4ccccc4)cc3n2C(CO)CCl)cc(O)c1O (stereo not shown) [Example 42, 1-(1-chloro-3-hydroxypropan-2-yl)-2-(3,4-dihydroxy-5-methoxyphenyl)-N-phenyl-1H-benzo[d]imidazole-6-sulfonamide]
10 to 100	COc1cc(-c2nc3ccncc3n2C2COC2)cc(O)c1O [Example 43, 3-methoxy-5-(3-(oxetan-3-yl)-3H-imidazo[4,5-c]pyridin-2-yl)benzene-1,2-diol]
> 100	COc1cc(-c2nc3ccncc3n2C)cc(O)c1O [Example 44, 3-methoxy-5-(3-methyl-3H-imidazo[4,5-c]pyridin-2-yl)benzene-1,2-diol]
> 100	COc1cc(-c2nc3cnccc3n2C)cc(O)c1O [Example 45, 3-methoxy-5-(1-methyl-1H-imidazo[4,5-c]pyridin-2-yl)benzene-1,2-diol]
10 to 100	COc1cc(-c2nc3cc(S(=O)(=O)Nc4ccccc4)ccc3n2C2COC2)cc(O)c1O [Example 46, 2-(3,4-dihydroxy-5-methoxyphenyl)-1-(oxetan-3-yl)-N-phenyl-1H-benzo[d]imidazole-5-sulfonamide]
10 to 100	COc1cc(-c2nc3cnccc3n2C2COC2)cc(O)c1O [Example 47, 3-methoxy-5-(1-(oxetan-3-yl)-1H-imidazo[4,5-c]pyridin-2-yl)benzene-1,2-diol]
> 100	COc1cc(-c2nc3cc(N4CCCCC4)ccc3[nH]2)cc(O)c1O [Example 48, 3-methoxy-5-(5-(piperidin-1-yl)-1H-benzo[d]imidazol-2-yl)benzene-1,2-diol]
> 100	COc1cc(-c2nc3cc(N4CCC(c5ccccc5)CC4)ccc3[nH]2)cc(O)c1O [Example 49, 3-methoxy-5-(5-(4-phenylpiperidin-1-yl)-1H-benzo[d]imidazol-2-yl)benzene-1,2-diol]
1 to 10	COc1cc(-c2nc3cc(N4CCN(S(C)(=O)=O)CC4)ccc3[nH]2)cc(O)c1O [Example 50, 3-methoxy-5-(5-(4-(methylsulfonyl)piperazin-1-yl)-1H-benzo[d]imidazol-2-yl)benzene-1,2-diol]
> 100	COc1cc(-c2nc3ccc(N4CCN(C)CC4)cc3n2C2COC2)cc(O)c1O [Example 51, 3-methoxy-5-(6-(4-methylpiperazin-1-yl)-1-(oxetan-3-yl)-1H-benzo[d]imidazol-2-yl)benzene-1,2-diol]
> 100	COc1cc(-c2nc3cc(N4CCN(CC(F)(F)F)CC4)ccc3[nH]2)cc(O)c1O [Example 52, 3-methoxy-5-(5-(4-(2,2,2-trifluoroethyl)piperazin-1-yl)-1H-benzo[d]imidazol-2-yl)benzene-1,2-diol]
> 100	COc1cc(-c2nc3cc(N4CCN(c5ccccc5)CC4)ccc3[nH]2)cc(O)c1O [Example 53, 3-methoxy-5-(5-(4-phenylpiperazin-1-yl)-1H-benzo[d]imidazol-2-yl)benzene-1,2-diol]

IC50 [µM]	Structure (SMILES)
10 to 100	COc1cc(-c2nc3ccncc3n2C)c(C)c(O)c1O [Example 54, 6-methoxy-3-methyl-4-(3-methyl-3H-imidazo[4,5-c]pyridin-2-yl)benzene-1,2-diol]
> 100	COc1cc(-c2nc3cc(N4CCOCC4)ncc3[nH]2)cc(O)c1O [Example 55, 3-methoxy-5-(6-morpholino-3H-imidazo[4,5-c]pyridin-2-yl)benzene-1,2-diol]
> 100	O=C(O)c1ccc(-c2nc3ccccc3n2C2COC2)cc1O [Example 56, 2-hydroxy-4-(1-(oxetan-3-yl)-1H-benzo[d]imidazol-2-yl)benzoic acid]
> 100	COc1cc(-c2nc3cc(N4CCN(C5CCCCC5)CC4)ccc3[nH]2)cc(O)c1O [Example 57, 5-(5-(4-cyclohexylpiperazin-1-yl)-1H-benzo[d]imidazol-2-yl)-3-methoxybenzene-1,2-diol]
> 100	COc1cc(-c2nc3cc(C4CCNCC4)ccc3[nH]2)cc(O)c1O [Example 58, 3-methoxy-5-(5-(piperidin-4-yl)-1H-benzo[d]imidazol-2-yl)benzene-1,2-diol]
10 to 100	COc1cc(-c2nc3cc(N4CCN(Cc5ccccc5)CC4)ccc3[nH]2)cc(O)c1O [Example 59, 5-(5-(4-benzylpiperazin-1-yl)-1H-benzo[d]imidazol-2-yl)-3-methoxybenzene-1,2-diol]
10 to 100	COc1cc(-c2nc3cc(N4CCN(C)CC4)ccc3n2C2COC2)cc(O)c1O [Example 60, 3-methoxy-5-(5-(4-methylpiperazin-1-yl)-1-(oxetan-3-yl)-1H-benzo[d]imidazol-2-yl)benzene-1,2-diol]
> 100	COCCN1CCN(c2ccc3[nH]c(-c4cc(O)c(O)c(OC)c4)nc3c2)CC1 [Example 61, 3-methoxy-5-(5-(4-(2-methoxyethyl)piperazin-1-yl)-1H-benzo[d]imidazol-2-yl)benzene-1,2-diol]
1 to 10	COc1cc(-c2nc3cc(N4CCN(c5cccnc5)CC4)ccc3[nH]2)cc(O)c1O [Example 62, 3-methoxy-5-(5-(4-(pyridin-3-yl)piperazin-1-yl)-1H-benzo[d]imidazol-2-yl)benzene-1,2-diol]
10 to 100	COc1cc(-c2nc3ccc(N4CCOCC4)cc3n2C)cc(O)c1O [Example 63, 3-methoxy-5-(1-methyl-6-morpholino-1H-benzo[d]imidazol-2-yl)benzene-1,2-diol]
10 to 100	COc1c(O)c(O)c(C)c(-c2nc3ccccc3[nH]2)c1F [Example 64, 4-(1H-benzo[d]imidazol-2-yl)-5-fluoro-6-methoxy-3-methylbenzene-1,2-diol]
> 100	CCCCN1CCN(c2ccc3[nH]c(-c4cc(O)c(O)c(OC)c4)nc3c2)CC1 [Example 65, 5-(5-(4-butylpiperazin-1-yl)-1H-benzo[d]imidazol-2-yl)-3-methoxybenzene-1,2-diol]
10 to 100	COc1cc(-c2nc3cc(N4CCN(CCF)CC4)ccc3[nH]2)cc(O)c1O [Example 66, 5-(5-(4-(2-fluoroethyl)piperazin-1-yl)-1H-benzo[d]imidazol-2-yl)-3-methoxybenzene-1,2-diol]
> 100	COc1ccc2c(c1)CCN(c1ccc3[nH]c(-c4cc(O)c(O)c(OC)c4)nc3c1)C2 [Example 67, 3-methoxy-5-(5-(6-methoxy-3,4-dihydroisoquinolin-2(1H)-yl)-1H-benzo[d]imidazol-2-yl)benzene-1,2-diol]
> 100	COc1cc(-c2nc3cc(C4CCN(C)CC4)ccc3[nH]2)cc(O)c1O [Example 68, 3-methoxy-5-(5-(1-methylpiperidin-4-yl)-1H-benzo[d]imidazol-2-yl)benzene-1,2-diol]
> 100	COc1cc(-c2nc3cc(-c4ccccc4)ccc3[nH]2)cc(O)c1O [Example 69, 3-methoxy-5-(5-phenyl-1H-benzo[d]imidazol-2-yl)benzene-1,2-diol]
> 100	COc1cc(-c2nc3cc(N4CCOCC4)cnc3[nH]2)cc(O)c1O [Example 70, 3-methoxy-5-(6-morpholino-3H-imidazo[4,5-b]pyridin-2-yl)benzene-1,2-diol]
10 to 100	O=C(O)c1cc(-c2nc3ccncc3[nH]2)ccc1O [Example 71, 2-hydroxy-5-(3H-imidazo[4,5-c]pyridin-2-yl)benzoic acid]

Structure (SMILES)	IC50 [µM]
CC(C)COc1cc(-c2nc3cccnc3n2CC(C)C)cc(O)c1O [Example 40, 3-isobutoxy-5-(3-isobutyl-3H-imidazo[4,5-b]pyridin-2-yl)benzene-1,2-diol]	> 100
